US12054498B2, “Heteroaromatic macrocyclic ether chemotherapeutic agents” (Nuvalent, Inc., priority 2020, dated 2024)

What was measured:
ALK-wt = molecular target: T1, ALK-wt (Homo sapiens, UniProt Q9UM73); assay: Biochemical kinase assay, ALK-wt kinase domain; details: apparent inhibitory constant, Morrison equation; ATP 2 mM in substrate solution; read-out: ALK-wt Ki^app
T1 construct: purchased Carna 08-518
Method in brief: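 Compound in DMSO added first, then substrate solution (ATP 2 mM; AQT0101 or AQT0104, 26 μM; pH 7.5 HEPES, 10 mM MgCl2), then kinase solution with enzyme at 0.5–3 nM depending on construct. Kinetic read every 2 min for 120 min at 30° C; Ki^app by Morrison regression.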

ALK L1196M/G1202R = molecular target: T2, ALK L1196M/G1202R (Homo sapiens, UniProt Q9UM73, G1202R/L1196M); assay: Biochemical kinase assay, ALK L1196M/G1202R kinase domain; details: apparent inhibitory constant, Morrison equation; ATP 2 mM in substrate solution; read-out: ALK-L1196M-G1202R Ki^app
T2 construct: purchased SignalChem A19-12NG
Method in brief: (§1)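 Continuous fluorescence read (λ=485 nm, every 2 min, 120 min, 30° C). Substrate solution held 2 mM ATP and 26 μM AQT0101 (ROS1/ALK) or AQT0104 (TRKA). Kinase solution: ROS1-G2032R 0.5 nM, ROS1-wt 0.6 nM, TRKA 1 nM, ALK double mutant 3 nM. Initial linear rates fed a Morrison-equation fit giving Ki^app.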

ROS1-wt = molecular target: T3, ROS1-wt (Homo sapiens, UniProt P08922); assay: Biochemical kinase assay, ROS1-wt kinase domain; details: apparent inhibitory constant, Morrison equation; ATP 2 mM in substrate solution; read-out: ROS1-wt Ki^app
T3 construct: purchased Carna 08-163
Method in brief: (§2)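 Kinetic read: 485 nm, 2-min intervals, 120 min, 30 °C. Substrate mix — ATP 2 mM, AQT0101 26 μM, HEPES 50 mM pH 7.5, MgCl2 10 mM. Output: Ki^app, Morrison equation.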

ROS1-G2032R = molecular target: T4, ROS1-G2032R (Homo sapiens, UniProt P08922, G2032R); assay: Biochemical kinase assay, ROS1-G2032R kinase domain; details: apparent inhibitory constant, Morrison equation; ATP 2 mM in substrate solution; read-out: ROS1-G2032R Ki^app
T4 construct: purchased SignalChem R14-12BG
Method in brief: as §2

TRKA-wt = molecular target: T5, TRKA-wt (Homo sapiens, UniProt P04629); assay: Biochemical kinase assay, TRKA-wt kinase domain; details: apparent inhibitory constant, Morrison equation; ATP 2 mM in substrate solution; read-out: TRKA-wt Ki^app
T5 construct: or TRKA-wt (1 nM, BPS Bio, 40280) kinase domains in buffer; purchased BPS Bio 40280
Method in brief: as §1

[1] = molecular target: T6, Ba/F3 cells CD74-ROS1 wild-type (wt) (Homo sapiens, UniProt P08922); assay: Ba/F3 cell proliferation assay, CD74-ROS1 wild-type; type: cell-based; details: 72 hours, CellTiter-Glo
T6 construct: fusion of the C-terminus of ROS1 with the N-terminus of various partner proteins; host or cells: Ba/F3 (RIKEN), retroviral pMSCV-puro; the other entry of the earlier key: CD74 (P04233, HLA class II histocompatibility antigen gamma chain)
Method in brief: (§3)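 Cells seeded 1 day, then treated with 3-fold compound dilutions for 72 h; viability by CellTiter-Glo luminescence. IC50 from percent inhibition by four-parameter logistic fit.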

[2] = molecular target: T7, Ba/F3 cells CD74-ROS1 G2032R (Homo sapiens, UniProt P08922, G2032R); assay: Ba/F3 cell proliferation assay, CD74-ROS1 G2032R; type: cell-based; details: 72 hours, CellTiter-Glo
T7 construct: fusion of the C-terminus of ROS1 with the N-terminus of various partner proteins; host or cells: Ba/F3 (RIKEN), retroviral pMSCV-puro; the other entry of the earlier key: CD74 (P04233, HLA class II histocompatibility antigen gamma chain)
Method in brief: as §3

[3] = molecular target: T8, Ba/F3 cells EML4-ALK wt (variant 1) (Homo sapiens, UniProt Q9UM73); assay: Ba/F3 cell proliferation assay, EML4-ALK wt (variant 1); type: cell-based; details: 72 hours, CellTiter-Glo
T8 construct: echinoderm microtubule-associated protein-like 4 (EML4) gene and the ALK tyrosine kinase domain; host or cells: Ba/F3 (RIKEN), retroviral pMSCV-puro; the other entry of the earlier key: EML4 (Q9HC35, Echinoderm microtubule-associated protein-like 4)
Method in brief: (§4)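 IC50 values come from four-parameter logistic regression of CellTiter-Glo luminescence after 72 h exposure to 3-fold serial dilutions. Cells are Ba/F3 transformed by retroviral fusion-kinase constructs, grown without IL-3 under puromycin, plated at 1,000 per well a day before dosing.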

[4] = molecular target: T9, Ba/F3 cells EML4-ALK L1196M/G1202R (variant 1) (Homo sapiens, UniProt Q9UM73, G1202R/L1196M); assay: Ba/F3 cell proliferation assay, EML4-ALK L1196M/G1202R (variant 1); type: cell-based; details: 72 hours, CellTiter-Glo
T9 construct: echinoderm microtubule-associated protein-like 4 (EML4) gene and the ALK tyrosine kinase domain; host or cells: Ba/F3 (RIKEN), retroviral pMSCV-puro; the other entry of the earlier key: EML4 (Q9HC35, Echinoderm microtubule-associated protein-like 4)
Method in brief: as §4

Ba/F3 cells TPM3-TRKA = molecular target: T10, Ba/F3 cells TPM3-TRKA (Homo sapiens, UniProt P04629); assay: Ba/F3 cell proliferation assay, TPM3-TRKA; type: cell-based; details: 72 hours, CellTiter-Glo, read-out: TPM3-NTRK1-wt IC50
T10 construct: host or cells: Ba/F3 (RIKEN), retroviral pMSCV-puro; the other entry of the earlier key: TPM3 (P06753, Tropomyosin alpha-3 chain)
Method in brief: as §4

[5] = tested on: TPM3-NTRK1-wt IC50 / primary target IC50 (e.g. CD74-ROS1-wt); assay: TRKA selectivity in Ba/F3 cells (TRKA potency divided by primary target potency); type: cell-based; details: for TPM3-NTRK1-wt/CD74-ROS1-G2032R selectivity ratio: TRKA potency / CD74-ROS1-G2032R potency; for TPM3-NTRK1-wt/CD74-ROS1-wt selectivity ratio: TRKA potency / CD74-ROS1-wt potency; for TPM3-NTRK1-wt/EML4-ALK-L1196M-G1202R selectivity ratio: TRKA potency / EML4-ALK-L1196M-G1202R potency; for TPM3-NTRK1-wt/EML4-ALK-wt selectivity ratio: TRKA potency / EML4-ALK-wt potency
Method: TRKA selectivity was calculated by dividing a compound's TRKA potency by its primary target potency (e.g. TPM3-NTRK1-wt IC50/CD74-ROS1-wt IC50). Compound selectivity can be interpreted by binning ratio values: bin A for very high selectivity, ratio >30-fold; bin B for high selectivity, ratio >10-fold; bin C for moderate selectivity, ratio ≥1; and bin D for low selectivity, ratio <1. […] (nd=not determined).

T5 sequence (P04629 510-781 limits assumed): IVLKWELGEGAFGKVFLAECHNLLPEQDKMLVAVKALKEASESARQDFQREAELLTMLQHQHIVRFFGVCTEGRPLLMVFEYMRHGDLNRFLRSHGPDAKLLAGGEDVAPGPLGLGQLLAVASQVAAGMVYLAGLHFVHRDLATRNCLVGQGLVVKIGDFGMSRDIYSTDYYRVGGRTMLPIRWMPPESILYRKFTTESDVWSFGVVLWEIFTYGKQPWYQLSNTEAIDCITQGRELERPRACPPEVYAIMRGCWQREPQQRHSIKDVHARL
T9 sequence (Q9UM73 with tags, fused parts or gaps L1196M/G1202R): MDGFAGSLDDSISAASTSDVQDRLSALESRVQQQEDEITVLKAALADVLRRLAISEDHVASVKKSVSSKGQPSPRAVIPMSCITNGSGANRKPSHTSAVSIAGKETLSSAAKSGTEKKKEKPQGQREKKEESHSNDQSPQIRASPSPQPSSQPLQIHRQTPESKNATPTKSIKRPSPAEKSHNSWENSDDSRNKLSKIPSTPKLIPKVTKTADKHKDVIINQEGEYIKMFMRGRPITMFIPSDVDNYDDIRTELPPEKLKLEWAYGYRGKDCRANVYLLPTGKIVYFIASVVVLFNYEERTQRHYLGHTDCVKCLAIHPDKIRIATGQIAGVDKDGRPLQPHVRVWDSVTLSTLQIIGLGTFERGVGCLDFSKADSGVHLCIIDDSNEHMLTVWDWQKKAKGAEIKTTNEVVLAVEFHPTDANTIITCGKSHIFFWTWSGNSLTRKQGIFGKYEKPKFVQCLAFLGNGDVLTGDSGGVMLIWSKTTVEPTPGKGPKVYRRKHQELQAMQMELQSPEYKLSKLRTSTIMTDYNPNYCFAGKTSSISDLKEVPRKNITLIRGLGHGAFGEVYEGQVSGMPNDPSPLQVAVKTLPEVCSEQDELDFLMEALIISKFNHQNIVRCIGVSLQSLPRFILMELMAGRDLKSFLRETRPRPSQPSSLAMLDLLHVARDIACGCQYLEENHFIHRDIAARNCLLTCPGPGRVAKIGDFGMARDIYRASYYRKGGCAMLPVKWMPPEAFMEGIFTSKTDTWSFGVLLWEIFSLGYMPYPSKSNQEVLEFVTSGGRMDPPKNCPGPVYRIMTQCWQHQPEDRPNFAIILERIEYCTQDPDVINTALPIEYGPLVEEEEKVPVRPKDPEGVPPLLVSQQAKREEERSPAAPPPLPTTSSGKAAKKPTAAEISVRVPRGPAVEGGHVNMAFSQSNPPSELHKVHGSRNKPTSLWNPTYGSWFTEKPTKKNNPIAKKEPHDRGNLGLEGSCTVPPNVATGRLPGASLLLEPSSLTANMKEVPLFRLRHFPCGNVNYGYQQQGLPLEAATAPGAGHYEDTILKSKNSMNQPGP
T3 sequence (P08922 1945-2222 limits assumed): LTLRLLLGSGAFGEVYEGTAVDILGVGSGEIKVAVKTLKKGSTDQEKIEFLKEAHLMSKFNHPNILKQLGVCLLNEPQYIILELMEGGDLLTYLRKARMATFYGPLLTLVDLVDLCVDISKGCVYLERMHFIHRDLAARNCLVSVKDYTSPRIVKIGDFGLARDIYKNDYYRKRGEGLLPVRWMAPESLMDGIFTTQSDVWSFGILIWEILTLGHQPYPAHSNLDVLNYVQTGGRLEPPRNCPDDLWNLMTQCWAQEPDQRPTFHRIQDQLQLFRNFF
T1 sequence (Q9UM73 1116-1392 limits assumed): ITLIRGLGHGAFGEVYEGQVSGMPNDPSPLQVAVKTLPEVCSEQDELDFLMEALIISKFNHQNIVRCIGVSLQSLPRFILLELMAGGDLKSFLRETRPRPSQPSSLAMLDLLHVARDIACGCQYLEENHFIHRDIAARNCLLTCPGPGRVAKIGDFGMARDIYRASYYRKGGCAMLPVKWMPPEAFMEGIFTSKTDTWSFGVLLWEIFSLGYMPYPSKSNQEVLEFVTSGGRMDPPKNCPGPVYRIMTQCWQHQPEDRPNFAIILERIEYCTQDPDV
T7 sequence (P08922 1883-2347 G2032R limits assumed): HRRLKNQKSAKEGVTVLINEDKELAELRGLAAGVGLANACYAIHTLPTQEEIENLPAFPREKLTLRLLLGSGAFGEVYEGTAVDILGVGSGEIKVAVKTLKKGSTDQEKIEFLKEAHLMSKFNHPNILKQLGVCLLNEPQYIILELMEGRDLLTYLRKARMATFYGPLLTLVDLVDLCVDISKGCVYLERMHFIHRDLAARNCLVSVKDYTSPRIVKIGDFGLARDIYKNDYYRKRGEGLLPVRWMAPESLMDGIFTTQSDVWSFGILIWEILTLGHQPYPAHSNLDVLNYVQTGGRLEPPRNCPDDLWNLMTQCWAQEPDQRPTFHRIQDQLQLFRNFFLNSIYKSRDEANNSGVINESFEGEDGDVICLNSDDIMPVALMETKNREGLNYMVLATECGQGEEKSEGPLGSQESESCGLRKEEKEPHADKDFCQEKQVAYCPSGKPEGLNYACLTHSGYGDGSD
T2 sequence (Q9UM73 1116-1392 L1196M/G1202R limits assumed): as the sequence (Q9UM73 1116-1392 limits assumed) above, with L81M, G87R counted along it
T8 sequence (Q9UM73 with tags, fused parts or gaps): as the sequence (Q9UM73 with tags, fused parts or gaps L1196M/G1202R) above, with M635L, R641G counted along it
T4 sequence (P08922 1945-2222 G2032R limits assumed): as the sequence (P08922 1945-2222 limits assumed) above, with G88R counted along it
T6 sequence (P08922 1883-2347 limits assumed): as the sequence (P08922 1883-2347 G2032R limits assumed) above, with R150G counted along it
T10 sequence (P04629 510-796 limits assumed): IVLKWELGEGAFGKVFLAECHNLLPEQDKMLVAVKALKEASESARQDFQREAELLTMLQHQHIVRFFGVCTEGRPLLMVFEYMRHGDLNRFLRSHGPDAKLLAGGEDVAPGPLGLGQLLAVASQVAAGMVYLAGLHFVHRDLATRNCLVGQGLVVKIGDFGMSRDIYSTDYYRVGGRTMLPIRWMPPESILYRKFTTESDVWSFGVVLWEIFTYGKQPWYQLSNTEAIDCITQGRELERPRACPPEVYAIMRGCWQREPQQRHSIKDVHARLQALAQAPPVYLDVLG

SMILES	Ki (ALK-wt) [nM]	Ki (ALK L1196M/G1202R) [nM]	Ki (ROS1-wt) [nM]	Ki (ROS1-G2032R) [nM]	Ki (TRKA-wt) [nM]	IC50 [1] [nM]	IC50 [2] [nM]	IC50 [3] [nM]	IC50 [4] [nM]	IC50 (Ba/F3 cells TPM3-TRKA) [nM]	TPM3-NTRK1-wt/CD74-ROS1-G2032R selectivity ratio [5]	TPM3-NTRK1-wt/CD74-ROS1-wt selectivity ratio [5]	TPM3-NTRK1-wt/EML4-ALK-L1196M-G1202R selectivity ratio [5]	TPM3-NTRK1-wt/EML4-ALK-wt selectivity ratio [5]
C[C@H]1Oc2cc(cnc2N)-c2c(C#N)ncn2Cc2ncccc2-c2ccc(F)cc21 [Example 19, (20R)-23-amino-17-fluoro-20-methyl-21-oxa-4,6,9,24-tetraazapentacyclo[20.3.1.0^3,^6.0^8,^13.0^14,^19]hexacosa-1(25),2,4,8(13),9,11,14,16,18,22(26),23-undecaene-3-carbonitrile]	< 50	< 50	< 50	< 50	> 500	0.1 to 50	0.1 to 50	0.1 to 50	0.1 to 50	> 500	A (bin A for very high selectivity, ratio >30-fold)	A (bin A for very high selectivity, ratio >30-fold)	A (bin A for very high selectivity, ratio >30-fold)	A (bin A for very high selectivity, ratio >30-fold)
C[C@H]1Oc2cc(cnc2N)-c2c(C#N)noc2Cn2nccc2-c2ccc(F)cc21 [Example 20, (19R)-22-amino-16-fluoro-19-methyl-5,20-dioxa-4,8,9,23-tetraazapentacyclo[19.3.1.0^2,^6.0^8,^12.0^13,^18]pentacosa-1(24),2(6),3,9,11,13(18), 4,16,21 (25),22-decaene-3-carbonitrile]	< 50	50 to 500	< 50	50 to 500	> 500	0.1 to 50	50 to 500	50 to 500	> 500	> 500	A (bin A for very high selectivity, ratio >30-fold)	A (bin A for very high selectivity, ratio >30-fold)	C (bin C for moderate selectivity, ratio ≥1)	A (bin A for very high selectivity, ratio >30-fold)
CCc1noc2c1-c1cnc(N)c(c1)O[C@H](C)c1cc(F)ccc1-c1ccnn1C2 [Example 21, (19R)-3-ethyl-16-fluoro-19-methyl-5,20-dioxa-4,8,9,23-tetraazapentacyclo[19.3.1.0^2,^6.0^8,^12.0^13,^18]pentacosa-1(24),2(6),3,9,11,13,15,17,21 (25),22-decaen-22-amine]	< 50	< 50	< 50	< 50	50 to 500	0.1 to 50	0.1 to 50	0.1 to 50	50 to 500	50 to 500	B (bin B for high selectivity, ratio >10-fold)	A (bin A for very high selectivity, ratio >30-fold)	C (bin C for moderate selectivity, ratio ≥1)	A (bin A for very high selectivity, ratio >30-fold)
CCc1noc2c1-c1cnc(N)c(c1)O[C@H](C)c1cc(F)ccc1-c1nn(C)nc1C2 [Example 22, (19R)-3-ethyl-16-fluoro-10,19-dimethyl-5,20-dioxa-4,9,10,11,23-pentaazapentacyclo[19.3.1.0^2,^6.0^8,^12.0^13,^18]pentacosa-1(24),2(6),3,8,11,13,15,17,21(25),22-decaen-22-amine]	< 50	< 50	< 50	< 50	50 to 500	0.1 to 50	0.1 to 50	0.1 to 50	50 to 500	50 to 500	A (bin A for very high selectivity, ratio >30-fold)	A (bin A for very high selectivity, ratio >30-fold)	C (bin C for moderate selectivity, ratio ≥1)	B (bin B for high selectivity, ratio >10-fold)
